Experiment: mn = molality of the nth substance listed, in mol/kg
Conditions: 101 kPa, Liquid; for mass density: Vibrating tube method; for speed of sound: Pulse-echo method

O=S(=O)([O-])C(F)(F)F.O=S(=O)([O-])C(F)(F)F.O=S(=O)([O-])C(F)(F)F.[Gd+3] [gadolinium (III) trifluoromethanesulfonate] + CN(C)C=O
Conditions	mass density, 283.15 K [kg/m3]	mass density, 293.15 K [kg/m3]	mass density, 298.15 K [kg/m3]	mass density, 303.15 K [kg/m3]	mass density, 313.15 K [kg/m3]	mass density, 323.15 K [kg/m3]	mass density, 333.15 K [kg/m3]	speed of sound, 298.15 K [m/s]
m1 = 0.01967	966.39	956.87	952.11	947.35	937.76	928.14	918.46	1455.8
m1 = 0.02703	969.53	960.01	955.25	950.48	940.9	931.28	921.61	1455.2
m1 = 0.03489	972.9	963.38	958.61	953.84	944.26	934.64	924.97	1454.5
m1 = 0.04531	977.36	967.83	963.07	958.3	948.72	939.1	929.43	1453.6
m1 = 0.05527	981.65	972.13	967.36	962.59	953.01	943.4	933.75	1452.8
m1 = 0.07019	988.17	978.65	973.89	969.1	959.52	949.91	940.24	1451.5
m1 = 0.09028	997.06	987.52	982.77	977.97	968.39	958.77	949.11	1449.4
m1 = 0.108	1004.97	995.43	990.66	985.88	976.29	966.68	957.02	1448
m1 = 0.1249	1012.67	1003.13	998.36	993.58	983.99	974.37	964.71	1446.3
m1 = 0.146	1022.39	1012.83	1008.05	1003.28	993.69	984.07	974.42	1443.5
m1 = 0.1634	1030.52	1020.96	1016.18	1011.39	1001.8	992.19	982.54	1441.7

O=S(=O)([O-])C(F)(F)F.O=S(=O)([O-])C(F)(F)F.O=S(=O)([O-])C(F)(F)F.[La+3] [lanthanum(III) trifluoromethanesulfonate] + CC(=O)N(C)C
Conditions	mass density, 283.15 K [kg/m3]	mass density, 293.15 K [kg/m3]	mass density, 298.15 K [kg/m3]	mass density, 303.15 K [kg/m3]	mass density, 313.15 K [kg/m3]	mass density, 323.15 K [kg/m3]	mass density, 333.15 K [kg/m3]	speed of sound, 298.15 K [m/s]
m1 = 0.02085	958.67	949.47	944.86	940.26	931.01	921.74	912.42	–
m1 = 0.02801	961.64	952.45	947.84	943.23	933.99	924.71	915.39	–
m1 = 0.03761	965.63	956.43	951.81	947.21	937.97	928.7	919.38	–
m1 = 0.04797	969.94	960.74	956.14	951.53	942.29	933.02	923.71	–
m1 = 0.05797	974.13	964.94	960.34	955.73	946.49	937.22	927.91	–
m1 = 0.07244	980.27	971.08	966.48	961.88	952.67	943.36	934	1455.9
m1 = 0.09378	989.43	980.24	975.64	971.03	961.79	952.5	943.16	–
m1 = 0.1127	997.64	988.45	983.85	979.24	969.99	960.7	951.36	–
m1 = 0.1302	1005.34	996.15	991.55	986.95	977.69	968.39	959.05	–
m1 = 0.1523	1015.25	1006.06	1001.46	996.85	987.59	978.29	968.93	–
m1 = 0.1712	1023.81	1014.62	1010.03	1005.42	996.16	986.84	977.5	–

Source: the NIST ThermoML archive (doi:10.1016/j.jct.2012.11.004)
